Data published in BindingDB's records for doi:10.7270/Q2TX3CTT (Broad Institute, 2010).

Biological target: Glycogen synthase kinase-3 beta (Homo sapiens, UniProt P49841)
Assay: concentration-response blocking of human GSK3B – biochemical, luminescence, cell-free homogeneous, retest, dose response (AID 434954)

Glycogen synthase kinase-3 beta, sequence (P49841 whole entry): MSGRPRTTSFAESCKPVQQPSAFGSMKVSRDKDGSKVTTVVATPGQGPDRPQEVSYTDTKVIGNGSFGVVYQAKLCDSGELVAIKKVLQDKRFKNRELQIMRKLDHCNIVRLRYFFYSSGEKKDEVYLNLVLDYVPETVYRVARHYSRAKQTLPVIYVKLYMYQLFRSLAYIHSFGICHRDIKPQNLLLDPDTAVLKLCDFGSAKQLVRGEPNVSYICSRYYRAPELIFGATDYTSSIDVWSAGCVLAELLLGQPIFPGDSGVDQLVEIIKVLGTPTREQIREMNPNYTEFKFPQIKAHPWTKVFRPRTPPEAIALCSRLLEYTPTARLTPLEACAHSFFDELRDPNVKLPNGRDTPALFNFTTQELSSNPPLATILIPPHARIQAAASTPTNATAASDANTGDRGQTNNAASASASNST

| Structure (SMILES) | EC50 [µM] |
| --- | --- |
| COc1ccc(N2CCN(c3cc(C)nc4ccc(OC)cc34)CC2)cc1 [MLS001174346] | > 300 |
| CCOc1ccc2c(c1)-c1c(ssc1=S)C(C)(C)N2 [SMR000116364] | > 300 |
| Cc1[nH]nc2c1C(c1ccc(N(C)C)cc1)C1C(=O)CC(C)(C)CC1=N2 (configuration not stated) [SMR000343282] | 28 |
| Cc1ccc(SCCc2ccc(C)nc2)cc1 | > 300 |
| CN(C)c1nc(N)c([N+](=O)[O-])c(NCC2CCCO2)n1 (configuration not stated) [SMR000436172] | > 300 |
| COc1ccc(CNC(=O)CN(Cc2ccco2)C(=O)CCC(=O)Nc2ccccn2)cc1 [SMR000600509] | > 300 |
| CC(C)c1ccc(C=NNC(=O)c2nnn(-c3nonc3N)c2CN2CCOCC2)cc1 [SMR000646507] | > 300 |
| Cc1cccc(CSc2ccc3nnc(-c4cccs4)n3n2)c1 [SMR000236998] | > 300 |
| CN(CCO)c1cc(N2CCC3(CC2)OCCO3)c2nonc2c1[N+](=O)[O-] [MLS000584853] | 68 |
| O=C1C[C@@H](c2ccc(O)c(O)c2)Oc2cc(O)cc(O)c21 [2-[3,4-bis(oxidanyl)phenyl]-5,7-bis(oxidanyl)-2,3-dihydrochromen-4-one] | > 300 |
| O=C(/[O+]=N/[CH-]c1ccc(N2CCCCC2)c([N+](=O)[O-])c1)c1cccc(Cl)c1 [[(3-nitro-4-piperidin-1-yl-phenyl)methylideneamino] 3-chloranylbenzoate] | > 300 |
| CC(C)Nc1nnc(SCC(=O)NCc2ccc3c(c2)OCO3)s1 [SMR000375706] | > 300 |
| CCOC(=O)C1C(C)=Nc2ncnn2C1c1ccc(N(C)C)cc1 (configuration not stated) [ethyl 7-[4-(dimethylamino)phenyl]-5-methyl-1,7-dihydro-[1,2,4]triazolo[1,5-a]pyrimidine-6-carboxylate] | > 300 |
| COc1cccc(NC2=CC(=O)CC(C)(C)C2)c1 | > 300 |
| COc1ccccc1N1CCN(C(=O)Cn2nnc(-c3ccncc3)n2)CC1 [SMR000003468] | > 300 |
| O=NCc1ccc(Oc2ccc(F)cc2)c([N+](=O)[O-])c1 [N-[[4-(4-fluorophenoxy)-3-nitrophenyl]methylidene]hydroxylamine] | 23 |
| COc1cc(C(=O)Nc2cccc(-c3nc4ncccc4o3)c2C)cc(OC)c1OC [MLS000039714] | > 300 |
| CCOC(=O)c1cnc2ccc(OC)cc2c1Nc1ccc2c(c1)OCCO2 [SMR000196288] | 16.7 |
| O=C(OCCCOC(=O)c1ccccc1O)c1ccccc1O [2-hydroxybenzoic acid 3-[(2-hydroxyphenyl)-oxomethoxy]propyl ester] | > 300 |
| c1ccc(CSc2nnc(-c3ccncc3)o2)cc1 | 5.14 |
| C=CCn1cc(/C=C/c2cc[n+](C)cc2)c2ccccc21 [3-[(E)-2-(1-methylpyridin-1-ium-4-yl)ethenyl]-1-prop-2-enyl-indole;iodide] | > 300 |
| CCNc1nc(SCC(N)=O)nc2sc3c(c12)CCN(C)C3 [2-[[4-(ethylamino)-7-methyl-6,8-dihydro-5H-pyrido[4,5]thieno[1,2-c]pyrimidin-2-yl]sulfanyl]acetamide] | 49.4 |
| Cc1nnc(SCC(=O)Nc2nccs2)n(N)c1=O [SMR000323668] | > 300 |

Now from value to molecule:

| EC50 [µM] | Structure (SMILES) |
| --- | --- |
| > 300 | O=[N+]([O-])c1ccccc1S(=O)(=O)Nc1ccc(S(=O)(=O)Nc2nccs2)cc1 |
| 14.7 | CCOC(=O)c1nnn(-c2nonc2N)c1CSc1ccccc1 [ethyl 1-(4-amino-1,2,5-oxadiazol-3-yl)-5-[(phenylthio)methyl]-1H-1,2,3-triazole-4-carboxylate] |
| > 300 | Cc1ccc2c(C)c(C(=O)Nc3nnc(C)s3)oc2c1 [3,6-dimethyl-N-(5-methyl-1,3,4-thiadiazol-2-yl)-1-benzofuran-2-carboxamide] |
| > 300 | CCn1c(C=CN(C(C)=O)c2ccccc2)[n+](CC)c2cc(Cl)ccc21 [N-[(E)-2-(5-chloro-1,3-diethylbenzimidazol-1-ium-2-yl)ethenyl]-N-phenylacetamide;iodide] |
| > 300 | Fc1ccccc1Nc1nc(-c2ccncc2)nc2ccccc12 [N-(2-fluorophenyl)-2-pyridin-4-yl-quinazolin-4-amine] |
| > 300 | CC1=C(C#N)C(=O)NC(=O)C1=NNc1ccc(Br)cc1C(=O)O [MLS001213177] |
| 1.58 | Nc1nonc1-n1nnc(C(=O)NN=Cc2c(F)cccc2Cl)c1-c1ccc2c(c1)OCO2 [1-(4-amino-1,2,5-oxadiazol-3-yl)-5-(1,3-benzodioxol-5-yl)-N-[(2-chloro-6-fluorophenyl)methylideneamino]-4-triazolecarboxamide] |
| > 300 | Clc1ccc2c(c1)Nc1ccccc1CC2 [3-chloro-10,11-dihydro-5H-dibenzo[b,f]azepine] |
| 23.7 | Cn1c(SCC(=O)Nc2ccc(Cl)cn2)nnc1C1CC1 [N-(5-chloro-2-pyridinyl)-2-[(5-cyclopropyl-4-methyl-1,2,4-triazol-3-yl)thio]acetamide] |
| > 300 | Cc1ccccc1NC(=O)CN1C(=O)c2ccccc2C1=O [2-[1,3-bis(oxidanylidene)isoindol-2-yl]-N-(2-methylphenyl)ethanamide] |
| 1 | CC(C)(C)C(=O)c1sc(Nc2ccccc2)nc1N [1-(4-amino-2-anilino-1,3-thiazol-5-yl)-2,2-dimethyl-1-propanone] |
| 9.16 | O=C(Nc1ccc(O)c2c(=O)cc(-c3ccccc3Cl)oc12)c1ccc(Cl)cc1Cl |
| > 300 | Cn1cc([CH+][N-]NC(=O)COc2ccccc2[N+](=O)[O-])c2ccccc21 [N-[(1-methylindol-3-yl)methylideneamino]-2-(2-nitrophenoxy)acetamide] |
| > 300 | Cc1ccccc1C1=NC(C(F)(F)F)(C(F)(F)F)c2c(n(C)c(=O)n(C)c2=O)N1 [1,3-dimethyl-7-(2-methylphenyl)-5,5-bis(trifluoromethyl)-8H-pyrimido[4,5-d]pyrimidine-2,4-dione] |
| > 300 | Cc1cc(C)n(S(=O)(=O)c2ccc(C)c(C)c2)n1 [SMR000515396] |
| > 300 | CCCc1c(NC(=O)Nc2ccc(F)cc2)cnn1-c1ccccc1 [1-(4-fluorophenyl)-3-(1-phenyl-5-propylpyrazol-4-yl)urea] |
| > 300 | Cc1ccc(C2c3c([nH]c(=S)[nH]c3=O)N=C3CC(C)(C)CC(=O)C32)cc1 (configuration not stated) [8,8-dimethyl-5-(4-methylphenyl)-2-sulfanylidene-5,7,9,10-tetrahydro-1H-pyrimido[4,5-b]quinoline-4,6-dione] |
| > 300 | Cc1ccccc1NC(=O)CSc1nc(N)c(C#N)c(-c2cccs2)c1C#N [2-(6-amino-3,5-dicyano-4-thiophen-2-ylpyridin-2-yl)sulfanyl-N-(2-methylphenyl)acetamide] |
| > 300 | COc1ccc(C2C3=C(CC(C)(C)CC3=O)Nc3c2c(=O)nc2nc(C)[nH]n32)cc1 (configuration not stated) [SMR000035838] |
| > 300 | COc1cc(OC)c2c(-c3ccccc3)cc(=O)oc2c1 [5,7-dimethoxy-4-phenyl-chromen-2-one] |
| > 300 | Cn1c(=O)[nH]c(=O)c2c1nc(Br)n2Cc1ccccc1Cl [MLS000031623] |
| > 300 | Cc1nnc2n(-c3ccccc3)c(=O)c3c4c(sc3n12)COC(C)(C)C4 [SMR000038952] |
| 71.4 | CC(C)Cn1nc(NC(=O)C(C)(C)C)c2cc3ccccc3nc21 [MLS000081069] |
| > 300 | CCCCc1cc(=O)oc2cc(OS(C)(=O)=O)ccc12 [(4-butyl-2-oxidanylidene-chromen-7-yl) methanesulfonate] |
